Test results taken from publication PMC8695447, “Novel Small Molecules Capable of Blocking mtRAS-Signaling Pathway” (Frontiers in Oncology, 2021).

How the values were obtained:
[1] = system: mtKRAS NSCLC cell; set-up: method as in earlier work; details: ACK1 inhibitor; ref 37 (Tan et al.); cited from earlier work
[2] = system: Ba/F3-NRAS-G12D cells; assay: Anti-proliferation assay (CellTiter Glo) on Ba/F3-NRAS-G12D; assay type: cell-based; details: Mus musculus, BaF3; 72 h treatment; average with SD (n = 3, duplicate)
Description: (§1) Ba/F3-parental, OCI-AML3, U397 cells were purchased from DSMZ. MDA-MB-231, HCT-116, AsPC-1, H358, HT-29, SW480, and DU-145 cells were obtained from KCLB. MDA-MB-468 cells were obtained from ATCC. All cells were maintained in RPMI with 10% FBS and antibiotics. Cells were grown in a humidified 5% CO2 incubator at 37°C. Ba/F3-parental cells were grown in the presence of 10 ng/ml IL-3. NRAS-G12D or NRAS-G12V transformed Ba/F3 cell lines (Ba/F3-NRAS-G12D, and Ba/F3-NRAS-G12V, respectively) were cultured without IL-3, which were established by the procedure described as previously ([30]).
(§2) Approximately 3.0 × 10^3 cells/well were seeded in a 96-well cell culture plate. After stabilization, 1/3 serially diluted compound in DMSO was treated to the cell. […] All GI50 values were obtained in duplicate with three independent assays and averages with standard deviation are presented.

[3] = system: Ba/F3-NRAS-G12V cells; assay: Anti-proliferation assay (CellTiter Glo) on Ba/F3-NRAS-G12V; assay type: cell-based; details: Mus musculus, BaF3; 72 h treatment; average with SD (n = 3, duplicate)
Description: as §1, §2

[4] = system: Ba/F3-parental cells; assay: Anti-proliferation assay (CellTiter Glo) on Ba/F3-parental; assay type: cell-based; details: Mus musculus, BaF3; 72 h treatment; with 10 ng/ml IL-3; average with SD (n = 3, duplicate)
Description: as §1, §2

[5] = system: H358 (KRAS-G12C); assay: Anti-proliferation assay on H358; assay type: cell-based; details: Homo sapiens, NCI-H358; 72 h treatment; average with SD (n = 3, duplicate)
Description: as §1, §2

[6] = system: AsPC-1 (KRAS-G12D); assay: Anti-proliferation assay on AsPC-1; assay type: cell-based; details: Homo sapiens, ASPC1; 72 h treatment; average with SD (n = 3, duplicate)
Description: as §1, §2

[7] = system: DU-145 (KRAS-G12V); assay: Anti-proliferation assay on DU-145; assay type: cell-based; details: Homo sapiens, DU-145; 72 h treatment; average with SD (n = 3, duplicate)
Description: as §1, §2

[8] = system: SW480 (KRAS-G12V); assay: Anti-proliferation assay on SW480; assay type: cell-based; details: Homo sapiens, SW480; 72 h treatment; average with SD (n = 3, duplicate)
Description: as §1, §2

[9] = system: HCT-116 (KRAS-G13D); assay: Anti-proliferation assay on HCT-116; assay type: cell-based; details: Homo sapiens, HCT-116; 72 h treatment; average with SD (n = 3, duplicate)
Description: as §1, §2

[10] = system: MDA-MB-231 (KRAS-G13D); assay: Anti-proliferation assay on MDA-MB-231; assay type: cell-based; details: Homo sapiens, MDA-MB-231; 72 h treatment; average with SD (n = 3, duplicate)
Description: as §1, §2

[11] = system: HT-29 (KRAS-Q61L); assay: Anti-proliferation assay on HT-29; assay type: cell-based; details: Homo sapiens, HT-29; 72 h treatment; average with SD (n = 3, duplicate)
Description: as §1, §2

[12] = system: OCI-AML3 (NRAS-Q61L); assay: Anti-proliferation assay on OCI-AML3; assay type: cell-based, human; details: Homo sapiens, OCI-AML-3; 72 h treatment; average with SD (n = 3, duplicate)
Description: as §1, §2

[13] = system: MDA-MB-468 (KRAS, NRAS-wt); assay: Anti-proliferation assay on MDA-MB-468; assay type: cell-based; details: Homo sapiens, MDA-MB-468; 72 h treatment; average with SD (n = 3, duplicate)
Description: as §1, §2

[14] = system: U937 (KRAS, NRAS-wt); assay: Anti-proliferation assay on U937; assay type: cell-based; details: Homo sapiens, U-937; 72 h treatment; average with SD (n = 3, duplicate)
Description: as §1, §2

Q: For COc1cc(Nc2c(C#N)cnc3cc(OCCCN4CCN(C)CC4)c(OC)cc23)c(Cl)cc1Cl [bosutinib], which “mtKRAS NSCLC cell migration and invasion” value [1] is on record?
A: The value was “suppressed”.

Q: Which GI50 [2] does the source give for CCN1CCN(c2ccc(Nc3ncc4c(n3)N(C)C(=O)N(c3cc(NC(=O)c5cccc(C(F)(F)F)c5)ccc3C)C4)cc2)CC1 [Compound 4, N-(3-(7-((4-(4-Ethylpiperazin-1-yl)phenyl)amino)-1-methyl-2-oxo-1,4-dihydropyrimido[4,5-d]pyrimidin-3(2H)-yl)-4-methylphenyl)-3-(trifluoromethyl)benzamide] here?
A: The GI50 was 230 ± 129 nM.

Q: What about the GI50 [3] of the same compound?
A: Its GI50 is 213 ± 53 nM.

Q: And the GI50 [4]?
A: The GI50 was 857 ± 108 nM.

Q: And the GI50 [5]?
A: Its GI50 is 236 ± 29 nM.

Q: And the GI50 [6]?
A: The GI50 was 135 ± 18 nM.

Q: And the GI50 [7]?
A: Its GI50 is 32 ± 14 nM.

Q: And the GI50 [8]?
A: Its GI50 is 163 nM.

Q: What about the GI50 [9] of the same compound?
A: Its GI50 is 25 ± 10 nM.

Q: What about the GI50 [10] of the same compound?
A: The GI50 was 83 ± 22 nM.

Q: What about the GI50 [11] of the same compound?
A: The GI50 was 126 ± 2 nM.

Q: And the GI50 [12]?
A: The GI50 was 44 ± 14 nM.

Q: And the GI50 [13]?
A: The GI50 was 26100 ± 7900 nM.

Q: What about the GI50 [14] of the same compound?
A: Its GI50 is 1040 ± 225 nM.

Q: What does the source list for Cc1ccc(NC(=O)c2cccc(C(F)(F)F)c2)cc1N1Cc2cnc(Nc3ccc(N4CCOCC4)cc3)nc2N(C)C1=O [Compound 3, N-(4-Methyl-3-(1-methyl-7-((4-morpholinophenyl)amino)-2-oxo-1,4-dihydropyrimido[4,5-d]pyrimidin-3(2H)-yl)phenyl)-3-(trifluoromethyl)benzamide]?
A: GI50 [2]: 120 ± 39 nM; GI50 [3]: 134 ± 45 nM; GI50 [4]: 1060 ± 55 nM; GI50 [5]: 265 ± 4 nM; GI50 [6]: 136 ± 11 nM; GI50 [7]: 30 ± 8 nM; GI50 [8]: 382 ± 52 nM; GI50 [9]: 18 ± 6 nM; GI50 [10]: 49 ± 12 nM; GI50 [11]: 227 ± 12 nM; GI50 [12]: 80 ± 16 nM; GI50 [13]: > 50000 nM; GI50 [14]: 2220 ± 163 nM
